# Positions of bridges follow the written chain, without caps; N, C: chain ends. Non-standard residues stand in square brackets, D forms with d. Residues, ends and D or L forms follow the SMILES beside them. Orn = NCCC[C@H](N)C(=O)O; Mpa = O=C(O)CCS
# Molecular target: T1, oxytocin receptor (Rattus norvegicus, UniProt P70536)
# T1 construct: uterus was excised, and a membrane sample was prepared therefrom; from tissue; host or cells: rat uterus (membrane preparation after diethylstilbestrol dipropionate treatment)
# T1 sequence (P70536 1-388): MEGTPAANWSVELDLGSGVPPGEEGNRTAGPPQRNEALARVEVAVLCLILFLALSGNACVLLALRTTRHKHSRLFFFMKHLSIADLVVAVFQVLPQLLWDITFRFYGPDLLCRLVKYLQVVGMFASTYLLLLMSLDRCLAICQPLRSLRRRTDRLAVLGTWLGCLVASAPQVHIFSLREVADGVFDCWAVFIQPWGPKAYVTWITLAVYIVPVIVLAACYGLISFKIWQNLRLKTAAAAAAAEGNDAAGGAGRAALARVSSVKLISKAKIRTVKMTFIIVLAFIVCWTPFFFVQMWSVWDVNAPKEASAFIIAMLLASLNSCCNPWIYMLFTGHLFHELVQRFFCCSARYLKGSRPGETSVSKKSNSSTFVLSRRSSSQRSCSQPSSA
# Experiment: Oxytocin receptor binding assay ([3H]-oxytocin, rat uterine membrane sample)
# Protocol: (Oxytocin Receptor Binding Assay)
# Preparation of Uterine membrane was prepared by a method of Soroff, et al. (J. Biol. Chem., 249: 1376, 1974) while a binding assay was performed by a method of Pettibone, et al. (Endocrinology, 125: 217, 1989). Diethylstilbestrol dipropionate (0.3 mg/kg) was administered to a rat intraperitoneally, and after 18 to 24 hours, uterus was excised, and a membrane sample was prepared therefrom. [^3H]-Oxytocin (0.5 nM; specific activity=30 to 60 Ci/mmol), 50 μg of the membrane sample and a test drug (10^−8 to 10^−5 M) were incubated at room temperature for 60 minutes in 250 μl (total volume) of 50 mM Tris hydrochloride buffer (pH 7.4) containing 10 mM of magnesium chloride and 0.1% of bovine serum albumin (BSA). […] The glass filter was taken out, well dried and mixed with a cocktail for liquid scintillation, the amount of [^3H]-oxytocin bound to the sample was determined by a liquid scintillation counter, and the inhibition rate was calculated from the following equation: […]
# wherein [L] is a concentration of the radioactive ligand; and Kd is a dissociation constant calculated from the scattered plots.
# Then, a negative logarithmic value of Ki calculated hereinabove was taken as pKi. […]
structure (smiles),measurement,value
CCOc1ccc(C[C@H]2NC(=O)CCSSC[C@@H](C(=O)N3CCC[C@H]3C(=O)N[C@@H](CCCN)C(=O)NCC(N)=O)NC(=O)[C@H](CC(N)=O)NC(=O)[C@H]([C@@H](C)O)NC(=O)[C@H]([C@@H](C)CC)NC2=O)cc1 [atosiban] ([Mpa][dY](Et)ITNCP[Orn]G-NH2; disulfide 1-6),Ki,11.7 nM

# — patent US6340678B1, “4,4-difluoro-2,3,4,5-tetrahydro-1H-1-benzoazepine derivatives and drug compositions containing them” (Yamanouchi Pharmaceutical Co., Ltd., priority 1997, dated 2002)
